# Laboratory results as given in patent US20050153033A1, “Lactic acid bacteria for the treatment of food” (priority 2003, published 2005).
# Test system: C. maltaromaticum strains (CB1, CB2, CB3, LV17, UAL26, ATCC 35586 and ATCC43225)
# Assay: Antibiotic resistance, overall statement for the strains tested
# Assay type: cell-based, Carnobacterium maltaromaticum
# Conditions: overall statement on Table 3
# Description: The strains specified in this GRAS document (e.g., Carnobacterium maltaromaticum strains CB1, CB2, CB3, LV17, UAL26, ATCC 35586 AND ATCC43225) have been tested for their resistance to 27 antibiotics (Table 3; Griffiths Labs, 2004).
row,Molecule,"Sensitivity of the C. maltaromaticum strains tested, overall"
1,O=C(N[C@H](CO)[C@H](O)c1ccc([N+](=O)[O-])cc1)C(Cl)Cl [Chloramphenicol],sensitive
2,O=C(O)c1cn(C2CC2)c2cc(N3CCNCC3)c(F)cc2c1=O [Ciprofloxacin],sensitive
3,CC[C@H]1OC(=O)[C@H](C)[C@@H](O[C@H]2C[C@@](C)(OC)[C@@H](O)[C@H](C)O2)[C@H](C)[C@@H](O[C@@H]2O[C@H](C)C[C@H](N(C)C)[C@H]2O)[C@](C)(O)C[C@@H](C)C(=O)[C@H](C)[C@@H](O)[C@]1(C)O [Erythromycin],sensitive
4,CCN[C@@H]1C[C@H](N)[C@@H](O[C@H]2OC(CN)=CC[C@H]2N)[C@H](O)[C@H]1O[C@H]1OC[C@](C)(O)[C@H](NC)[C@H]1O [Netilmicin],sensitive
5,CO[C@H]1/C=C/O[C@@]2(C)Oc3c(C)c(O)c4c(O)c(c(/C=N/N5CCN(C)CC5)c(O)c4c3C2=O)NC(=O)/C(C)=C\C=C\[C@H](C)[C@H](O)[C@@H](C)[C@@H](O)[C@@H](C)[C@H](OC(C)=O)[C@@H]1C [Rifampin],sensitive
6,NC[C@H]1O[C@H](O[C@H]2[C@H](O)[C@@H](O[C@H]3O[C@H](CO)[C@@H](O)[C@H](N)[C@H]3O)[C@H](N)C[C@@H]2N)[C@H](N)C[C@@H]1O [Tobramycin],sensitive
7,Amoxicillin + clavulanic acid,sensitive
8,Gentamicin,sensitive
